From the supplement of paper PMC10307832

Tests used:
Assay in all cases: relative viability (nuclei count vs DMSO), 5 days (fraction); higher = more cells survive
Elesclomol + Bortezomib = compound: CN(NC(=O)CC(=O)NN(C)C(=S)c1ccccc1)C(=S)c1ccccc1 [Elesclomol] + CC(C)C[C@H](NC(=O)[C@H](Cc1ccccc1)NC(=O)c1cnccn1)B(O)O [Bortezomib] (partner 0.002 µM)
Outline: (§1)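 Cells from lung cancer lines were seeded into 1536-well plates and, one day later, dosed by pin tool. Treatments were either a single drug or a fixed dose of an anchor drug with five library-drug doses (not always all listed) in √10 steps. After 5 days, nuclei were stained in a one-step fixation (final 0.05% Triton X-100, 1% formaldehyde, 1 ug/ml Hoechst) and counted on 4× images, and relative viability is the treated-to-vehicle nuclei ratio, as the median of duplicate plates.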

Elesclomol + Foretinib = compound: CN(NC(=O)CC(=O)NN(C)C(=S)c1ccccc1)C(=S)c1ccccc1 [Elesclomol] + COc1cc2c(Oc3ccc(NC(=O)C4(C(=O)Nc5ccc(F)cc5)CC4)cc3F)ccnc2cc1OCCCN1CCOCC1 [Foretinib] (partner 0.25 µM)
Outline: as §1

Elesclomol + Tozasertib = compound: CN(NC(=O)CC(=O)NN(C)C(=S)c1ccccc1)C(=S)c1ccccc1 [Elesclomol] + Cc1cc(Nc2cc(N3CCN(C)CC3)nc(Sc3ccc(NC(=O)C4CC4)cc3)n2)n[nH]1 [Tozasertib] (partner 0.1 µM)
Outline: as §1

Elesclomol + Vorinostat = compound: CN(NC(=O)CC(=O)NN(C)C(=S)c1ccccc1)C(=S)c1ccccc1 [Elesclomol] + O=C(CCCCCCC(=O)Nc1ccccc1)NO [Vorinostat] (partner 1 µM)
Outline: as §1

Elesclomol + Luminespib = compound: CN(NC(=O)CC(=O)NN(C)C(=S)c1ccccc1)C(=S)c1ccccc1 [Elesclomol] + CCNC(=O)c1noc(-c2cc(C(C)C)c(O)cc2O)c1-c1ccc(CN2CCOCC2)cc1 [Luminespib] (partner 0.01 µM)
Outline: as §1

Row | Cell Line | relative viability (Elesclomol + Bortezomib; first compound 0.003162 µM) | relative viability (Elesclomol + Bortezomib; first compound 0.01 µM) | relative viability (Elesclomol + Bortezomib; first compound 0.03162 µM) | relative viability (Elesclomol + Bortezomib; first compound 0.1 µM) | relative viability (Elesclomol + Foretinib; first compound 0.003162 µM) | relative viability (Elesclomol + Foretinib; first compound 0.01 µM) | relative viability (Elesclomol + Foretinib; first compound 0.03162 µM) | relative viability (Elesclomol + Foretinib; first compound 0.1 µM) | relative viability (Elesclomol + Tozasertib; first compound 0.003162 µM) | relative viability (Elesclomol + Tozasertib; first compound 0.01 µM) | relative viability (Elesclomol + Tozasertib; first compound 0.03162 µM) | relative viability (Elesclomol + Tozasertib; first compound 0.1 µM) | relative viability (Elesclomol + Vorinostat; first compound 0.003162 µM) | relative viability (Elesclomol + Vorinostat; first compound 0.01 µM) | relative viability (Elesclomol + Vorinostat; first compound 0.03162 µM) | relative viability (Elesclomol + Vorinostat; first compound 0.1 µM) | relative viability (Elesclomol + Luminespib; first compound 0.003162 µM) | relative viability (Elesclomol + Luminespib; first compound 0.01 µM) | relative viability (Elesclomol + Luminespib; first compound 0.03162 µM) | relative viability (Elesclomol + Luminespib; first compound 0.1 µM)
1 | HCC-366 | 1.09 | 1.04 | 0.688 | 0.0134 | 0.893 | 0.945 | 0.899 | 0.0283 | 0.158 | 0.0679 | 0.0952 | 0.0212 | 0.371 | 0.228 | 0.173 | 0.0207 |  |  |  | 
2 | HCC-827 | 1.03 | 0.998 | 0.947 | 0.999 | 0.991 | 0.913 | 1.12 | 0.683 | 0.432 | 0.4 | 0.421 | 0.355 | 0.759 | 0.777 | 0.742 | 0.767 | 0.586 | 0.54 | 0.579 | 0.473
3 | HOP-62 | 0.884 | 0.708 | 0.83 | 0.146 | 1.12 | 0.948 | 0.677 | 0.349 | 0.359 | 0.305 | 0.277 | 0.141 | 0.659 | 0.469 | 0.477 | 0.136 | 0.877 | 0.892 | 0.962 | 0.554
4 | IA-LM | 0.534 | 0.137 | 0.0664 | 0.0121 | 1.13 | 0.54 | 0.0372 | 0.009 |  |  |  |  | 0.863 | 0.858 | 0.999 | 0.847 |  |  |  | 
5 | LC-2-ad | 0.978 | 0.337 | 0.11 | 0.0678 | 0.697 | 0.411 | 0.267 | 0.286 | 0.394 | 0.274 | 0.277 | 0.231 | 0.642 | 0.608 | 0.24 | 0.169 | 0.497 | 0.47 | 0.33 | 0.265
6 | LCLC-97TM1 | 0.493 | 0.0794 | 0.0851 | 0.0274 | 0.986 | 0.952 | 0.909 | 0.418 | 0.196 | 0.148 | 0.178 | 0.153 | 0.724 | 0.283 | 0.707 | 0.0661 | 0.791 | 0.877 | 0.781 | 0.247
7 | LCLC-103H | 1.12 | 0.865 | 1.07 | 0.838 | 0.771 | 0.768 | 0.862 | 0.487 | 0.477 | 0.377 | 0.426 | 0.202 | 0.82 | 0.496 | 0.877 | 0.568 | 0.903 | 0.734 | 1.01 | 0.435
8 | LK-2 |  |  |  |  | 0.89 | 0.969 | 0.719 | 0.177 | 0.172 | 0.166 | 0.153 | 0.12 | 0.395 | 0.232 | 0.167 | 0.121 | 0.197 | 0.172 | 0.178 | 0.136
9 | LOU-NH91 | 0.537 | 0.525 | 0.423 | 0.463 | 0.902 | 0.868 | 0.862 | 0.807 | 0.631 | 0.575 | 0.581 | 0.568 | 1.02 | 0.826 | 0.782 | 0.66 | 0.334 | 0.339 | 0.33 | 0.28
10 | LU99A | 1.21 |  | 1.18 | 0.121 | 0.883 | 0.625 | 0.815 | 0.234 | 0.305 | 0.245 | 0.274 | 0.165 | 0.438 | 0.459 | 0.429 | 0.162 | 0.264 | 0.21 | 0.227 | 0.189
11 | NCI-H358 |  |  |  |  | 0.261 | 0.182 | 0.106 | 0.1 | 0.0718 | 0.0649 | 0.0613 | 0.0545 | 0.62 | 0.0764 | 0.0906 | 0.0819 | 0.194 | 0.141 | 0.137 | 0.117
12 | NCI-H522 |  |  |  |  |  |  |  |  | 0.563 | 0.608 | 0.567 | 0.465 | 0.927 | 0.888 | 0.862 | 0.604 | 0.958 | 1.02 | 1.06 | 0.625
13 | NCI-H1395 |  |  |  |  | 1.06 | 0.665 | 0.332 | 0.324 | 0.832 | 0.461 | 0.243 | 0.276 | 0.814 | 0.46 | 0.245 | 0.215 | 0.57 | 0.498 | 0.308 | 0.292
14 | NCI-H1703 | 0.136 | 0.0882 | 0.104 | 0.12 | 0.26 | 0.207 | 0.129 | 0.133 |  |  |  |  |  |  |  |  |  |  |  | 
15 | NCI-H1792 | 0.894 | 0.85 | 0.968 | 0.986 |  |  |  |  |  |  |  |  |  |  |  |  | 0.385 | 0.354 | 0.431 | 0.329
16 | NCI-H1793 |  |  |  |  | 0.613 | 0.618 | 0.658 | 0.193 | 0.356 | 0.286 | 0.348 | 0.132 | 0.808 | 0.623 | 0.613 | 0.117 | 0.13 | 0.148 | 0.158 | 0.133
17 | NCI-H1944 |  |  |  |  | 0.93 | 0.868 | 0.838 | 0.358 | 0.236 | 0.251 | 0.23 | 0.139 | 0.652 | 0.578 | 0.459 | 0.166 | 0.73 | 0.682 | 0.654 | 0.371
18 | NCI-H2170 |  |  |  |  | 1.02 | 1.03 | 0.977 | 0.764 | 0.715 | 0.641 | 0.703 | 0.491 | 0.808 | 0.683 | 0.777 | 0.408 | 0.735 | 0.624 | 0.646 | 0.435
19 | SK-MES-1 |  |  |  |  | 0.87 | 0.502 | 0.859 | 0.854 | 0.842 | 0.791 | 0.318 | 0.479 | 1.13 | 0.481 | 0.425 | 0.284 | 0.922 | 0.713 | 0.274 | 0.295
20 | SW 900 |  |  |  |  | 0.87 | 0.91 | 0.127 | 0.0681 | 0.534 | 0.3 | 0.121 | 0.146 | 0.522 | 0.345 | 0.234 | 0.111 | 0.173 | 0.132 | 0.17 | 0.139
